Reference: PubChem BioAssay (NCI)
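48-hour exposure; five concentrations; linearly interpolated endpoints. GI50 = concentration required for 50% inhibition of growth. At the TGI there is no net growth.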

What was measured:
Assay in all cases: NCI anticancer screen, dose series, 48 h
HT29 colon = test system: HT29 colon
MCF7 breast = test system: MCF7 breast
ACHN renal = test system: ACHN renal
A498 renal = test system: A498 renal
MOLT-4 leukemia = test system: MOLT-4 leukemia
HCT-15 colon = test system: HCT-15 colon
COLO 205 colon = test system: COLO 205 colon
SNB-19 CNS = test system: SNB-19 CNS
SK-MEL-5 melanoma = test system: SK-MEL-5 melanoma
HCC-2998 colon = test system: HCC-2998 colon
SK-OV-3 ovarian = test system: SK-OV-3 ovarian
U251 CNS = test system: U251 CNS
HL-60(TB) leukemia = test system: HL-60(TB) leukemia
OVCAR-4 ovarian = test system: OVCAR-4 ovarian
KM12 colon = test system: KM12 colon
NCI-H460 lung = test system: NCI-H460 lung
A549 NSCLC = test system: A549 NSCLC
UACC-257 melanoma = test system: UACC-257 melanoma
BT-549 breast = test system: BT-549 breast
786-0 renal = test system: 786-0 renal
SR leukemia = test system: SR leukemia
OVCAR-8 ovarian = test system: OVCAR-8 ovarian
EKVX NSCLC = test system: EKVX NSCLC
OVCAR-5 ovarian = test system: OVCAR-5 ovarian
SK-MEL-28 melanoma = test system: SK-MEL-28 melanoma
SN12C renal = test system: SN12C renal
UACC-62 melanoma = test system: UACC-62 melanoma
MDA-MB-231 breast = test system: MDA-MB-231 breast

## Clc1nc(Cl)c2ncn(CC3(Cn4cnc5c(Cl)nc(Cl)nc54)COC3)c2n1
HT29 colon
  GI50: 226 nM
  TGI: > 100000 nM
MCF7 breast
  GI50: 188 nM
  TGI: 428 nM
ACHN renal
  GI50: 570 nM
  TGI: 1120 nM
A498 renal
  GI50: 1780 nM
  TGI: 3460 nM
MOLT-4 leukemia
  GI50: 462 nM
HCT-15 colon
  GI50: 178 nM
  TGI: 361 nM
COLO 205 colon
  GI50: 184 nM
  TGI: 356 nM
SNB-19 CNS
  GI50: 332 nM
  TGI: 803 nM
SK-MEL-5 melanoma
  GI50: 259 nM
  TGI: 855 nM
HCC-2998 colon
  GI50: 221 nM
  TGI: 389 nM
SK-OV-3 ovarian
  GI50: 1610 nM
  TGI: 2980 nM
U251 CNS
  GI50: 181 nM
  TGI: 331 nM
HL-60(TB) leukemia
  GI50: 354 nM
  TGI: 2780 nM
OVCAR-4 ovarian
  GI50: 276 nM
  TGI: 763 nM
KM12 colon
  GI50: 362 nM
  TGI: 1010 nM
NCI-H460 lung
  GI50: 222 nM
  TGI: 447 nM
A549 NSCLC
  GI50: 273 nM
  TGI: 1190 nM
UACC-257 melanoma
  GI50: 197 nM
  TGI: 427 nM
BT-549 breast
  GI50: 501 nM
  TGI: 1690 nM
786-0 renal
  GI50: 762 nM
  TGI: 2370 nM
SR leukemia
  GI50: 407 nM
  TGI: > 100000 nM
OVCAR-8 ovarian
  GI50: 256 nM
  TGI: 532 nM
EKVX NSCLC
  GI50: 821 nM
  TGI: 2430 nM
OVCAR-5 ovarian
  GI50: 634 nM
  TGI: 1200 nM
SK-MEL-28 melanoma
  GI50: 212 nM
  TGI: 396 nM
SN12C renal
  GI50: 260 nM
  TGI: 776 nM
UACC-62 melanoma
  GI50: 283 nM
  TGI: 903 nM
MDA-MB-231 breast
  GI50: 190 nM
  TGI: 371 nM
